Test results reported in patent US6077843A, “Aqueous suspensions of 9-hydroxyrisperidone fatty acid esters” (Janssen Pharmaceutica, N.V., priority 1996, dated 2000).

Experiments:
[1] = Particle size distribution of the milled and sieved ester; type: physicochemical
Text: # The ester was milled and sieved using appropriate nominal standard test sieves, yielding active ingredient having a particle size distribution as follows: […]

[2] = Pharmacokinetic investigations on ester depot formulations (described in words); type: in vivo; details: versus other C10-20 alkanoic acid esters
[3] = Systemic and local tolerance of depot formulations (described in words); type: in vivo
[4] = cited from earlier work
[5] = compared with risperidone; cited from earlier work
[6] = cited from earlier work; remark: listed apart in the source
[7] = compared with 9-hydroxy-risperidone; cited from earlier work
[8] = pamoate salt; cited from earlier work

In the case of `CCCCCCCCCCCCCCCC(=O)OC1CCCn2c1nc(C)c(CCN1CCC(c3noc4cc(F)ccc34)CC1)c2=O` (stereo not shown) [9-hydroxyrisperidone palmitate ester], the “particle size, 10% of the particles (by volume)” value ([1]; 10% by volume) was no less than 15 μm, the “particle size, 50% of the particles (by volume)” value ([1]; 50% by volume) was no less than 5 μm and the “particle size, 90% of the particles (by volume)” value ([1]; 90% by volume) was no less than 0.5 μm. For the same compound, the “pharmacokinetic point of view” value [2] was “superior ester”, the “difference between small or large prodrug particles” value ([3]; suspensions of the palmitate ester in sesame oil) was “No significant difference between small or large prodrug particles” and the “tolerance point of view” value ([3]; versus other C10-20 alkanoic acid esters) was “superior ester”.
In the case of `Cc1nc2n(c(=O)c1CCN1CCC(c3noc4cc(F)ccc34)CC1)CCCC2O` (stereo not shown) [9-hydroxyrisperidone], the elimination half-life ([4]; compared with risperidone) is listed as “longer elimination half-life” and the “pharmacological profile and potency” value [5] is listed as “comparable with that of the parent drug risperidone”.
In the case of `Cc1nc2n(c(=O)c1CCN1CCC(c3noc4cc(F)ccc34)CC1)CCCC2` [Risperidone, 3-[2-[4-(6-fluoro-1,2-benzisoxazol-3-yl)-1-piperidinyl]ethyl]-6,7,8,9-tetrahydro-2-methyl-4H-pyridol[1,2-a]pyrimidin-4-one], the therapeutic index ([6]; in vivo) is given as “relatively narrow therapeutic index”, the “undesirable side effects on overdosage” value ([6]; overdosage) is given as “most notably extra pyramidal syndrome (EPS) and to a lesser extent hypotension” and the metabolism ([4]; in vivo) is given as “metabolized to 9-hydroxyrisperidone”. The “distribution to and elimination from the brain tissues” value [7] was “more rapidly than its metabolite 9-hydroxy-risperidone”.
In the case of `Cc1nc2n(c(=O)c1CCN1CCC(c3noc4cc(F)ccc34)CC1)CCCC2` [risperidone pamoate], the water solubility [8] is listed as “poorly water-soluble”, the initial plasma levels ([4]; suspension, WO-94/25460) is listed as “relatively high initial plasma levels” and the “mean duration of action” value ([4]; suspension, WO-94/25460) is listed as “inadequate mean duration of action”. The “release of the active ingredient” value ([4]; suspension, WO-94/25460) was “too rapid”.
